Results on 16 compounds are retold here after patent US10821115B2, “Compounds that inhibit Mcl-1 protein” (priority 2017, dated 2020).

For orientation: pIC50 means the negative decadic logarithm of the IC50, by convention in mol/L.

For assay [1], the target named is recombinant human Mcl-1 (residues 171-327) / Bim interaction (Homo sapiens (Human), UniProt Q07820). Put plainly: biochemical. In kind it is binding. The note with it: read-out: Mcl-1 HTRF IC50. A general note: Time-resolved FRET reads energy transfer from a long-lived donor to a nearby acceptor.
Assay [2] deals with human multiple myeloma cell line, OPM-2. Put plainly: Cell viability assay (OPM-2 10 FBS), CellTiter-Glo. In kind it is cell-based. An outline of the steps: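 Serially diluted test compounds are incubated 16 h with cells (3000/well) in RPMI 1640 supplemented with 10% FBS. Viability is then measured by luminescence and IC50 calculated by 4-parameter logistic fit.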
For orientation: In ATP-based viability assays light output follows the ATP content of the culture.

[3] abbreviates: TR-FRET, Mcl-1(171-327) / biotin-Bim (51-76).
Setting [4] is: Homo sapiens, OPM-2, 16 h, read-out: OPM-2 10% FBS IC50 IP, OPM-2 cells, 10% FBS, 16 h, CellTiter-Glo.
The mark [5] stands for this setting: 0.1 nM Mcl-1(171-327), 0.05 nM biotin-Bim (51-76).
[6] abbreviates: read-out: OPM-2 10% FBS IC50 IP, OPM-2 cells, 10% FBS, 16 h, CellTiter-Glo.

pIC50: −log10 of the molar value. Where two headings read alike, the source gives them in different places.

Sequence of recombinant human Mcl-1 (residues 171-327) / Bim interaction (Q07820 171-327): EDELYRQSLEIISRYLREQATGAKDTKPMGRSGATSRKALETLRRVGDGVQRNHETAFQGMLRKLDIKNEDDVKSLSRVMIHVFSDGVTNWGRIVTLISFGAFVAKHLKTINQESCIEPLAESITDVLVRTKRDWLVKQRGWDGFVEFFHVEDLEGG

`C[C@@H]1[C@@H](C)C/C=C/[C@](O)(c2ccccn2)[C@@H]2CC[C@H]2CN2C[C@@]3(CCCc4cc(Cl)ccc43)COc3ccc(cc32)C(=O)NS1(=O)=O` [Example 100180, (1S,3′R,6′R,7′R,8′E,11′S,12′R)-6-chloro-7′-hydroxy-11′,12′-dimethyl-7′-(2-pyridinyl)-3,4-dihydro-2H,15′H-spiro[naphthalene-1,22′-[20]oxa[13]thia[1,14]diazatetracyclo [14.7.2.0~3,6~.0~19,24~]pentacosa[8,16,18,24]tetraen]-15′-one 13′,13′-dioxide]: the pIC50 was 8.31 in assay [1] (setting [3]) and 5.35 in assay [2] (setting [4]).

In the case of `C[C@@H]1[C@@H](C)CCC[C@](O)(C[C@@H]2CCCN(C)C2)[C@@H]2CC[C@H]2CN2C[C@@]3(CCCc4cc(Cl)ccc43)COc3ccc(cc32)C(=O)NS1(=O)=O` (single isomer, unassigned) [Example 100400], the values for the pIC50 in assay [1] (setting [3]) and in assay [2] (setting [4]) were 9.08 and 5.88, respectively.

As for “(1S,3′R,6′R,7′S,8′E,11′S,12′R)-6-chloro-7′-(2-methoxyethoxy)-11′,12′-dimethyl-7′-((9aR)-octahydro-2H-pyrido[1,2-a]pyrazin-2-ylmethyl)-3,4-dihydro-2H, 15′H-spiro[naphthalene-1,22′-[20]oxa[13]thia[1,14]diazatetracyclo[14.7.2.0-3,6˜.0˜19,24˜]pentacosa[8,16,18,24]tetraen]-15′-one 13′,13′-dioxide [Example 151]”, the pIC50 was 9.07 in assay [1] (setting [5]) and 6.34 in assay [2] (read-out: OPM-2 10% FBS IC50 IP, OPM-2 cells, 10% FBS, 16 h incubation).

`CO[C@@]1(CC(=O)N2CCN3CCOC[C@H]3C2)/C=C/C[C@H](C)[C@@H](C)S(=O)(=O)NC(=O)c2ccc3c(c2)N(C[C@@H]2CC[C@H]21)C[C@@]1(CCCc2cc(Cl)ccc21)CO3` [Example 100411, (1S,3′R,6′R,7′S,8′E,11′S,12′R)-6-chloro-7′-(2-((9aR)-hexahydropyrazino[2,1-c][1,4]oxazin-8(1H)-yl)-2-oxoethyl)-7′-methoxy-11′,12′-dimethyl-3,4-dihydro-2H,15′H-spiro[naphthalene-1,22′-[20]oxa[13]thia[1,14]diazatetracyclo [14.7.2.0~3,6~.0~19,24~]pentacosa[8,16,18,24]tetraen]-15′-one 13′,13′-dioxide]: the figures for the pIC50 in assay [1] (setting [3]) and in assay [2] (setting [4]) were 9.23 and 5.68, respectively.

For the compound `C[C@@H]1[C@@H](C)C/C=C/[C@@](O)(CC(=O)N2CCOCC2)[C@@H]2CC[C@H]2CN2C[C@@]3(CCCc4cc(Cl)ccc43)COc3ccc(cc32)C(=O)NS1(=O)=O` [Example 100085, (1S,3′R,6′R,7′S,8′E,11′S,12′R)-6-chloro-7′-hydroxy-11′,12′-dimethyl-7′-(2-(4-morpholinyl)-2-oxoethyl)-3,4-dihydro-2H,15′H-spiro[naphthalene-1,22′-[20]oxa[13]thia[1,14]diazatetracyclo [14.7.2.0~3,6~.0~19,24~]pentacosa[8,16,18,24]tetraen]-15′-one 13′,13′-dioxide], the pIC50 in assay [1] is 9.61; in assay [2] (setting [4]) it was 6.54.

Consider `C[C@@H]1[C@@H](C)C/C=C/[C@](O)(c2cccnc2F)[C@@H]2CC[C@H]2CN2C[C@@]3(CCCc4cc(Cl)ccc43)COc3ccc(cc32)C(=O)NS1(=O)=O` (single isomer, unassigned) [Example 100314], for which the pIC50 in assay [1] (setting [3]) is 8.53; in assay [2] (setting [6]) it was 5.64.

Take `C=C(C)[C@@H](O)C[C@]1(OC)/C=C/C[C@H](C)[C@@H](C)S(=O)(=O)NC(=O)c2ccc3c(c2)N(C[C@@H]2CC[C@H]21)C[C@@]1(CCCc2cc(Cl)ccc21)CO3` [Example 100470, (1S,3′R,6′R,7′S,8′E,11′S,12′R)-6-chloro-7′-((2S)-2-hydroxy-3-methyl-3-buten-1-yl)-7′-methoxy-11′,12′-dimethyl-3,4-dihydro-2H,15′H-spiro[naphthalene-1,22′-[20]oxa[13]thia[1,14]diazatetracyclo [14.7.2.0~3,6~.0~19,24~]pentacosa[8,16,18,24]tetraen]-15′-one 13′,13′-dioxide]: the pIC50 is 9.24 in assay [1] and 5.02 in assay [2] (setting [6]).

As to `CO[C@@]1(Cc2ncc(C)o2)/C=C/C[C@H](C)[C@@H](C)S(=O)(=O)NC(=O)c2ccc3c(c2)N(C[C@@H]2CC[C@H]21)C[C@@]1(CCCc2cc(Cl)ccc21)CO3` [Example 100529, (1S,3′R,6′R,7′S,8′E,11′S,12′R)-6-chloro-7′-methoxy-11′,12′-dimethyl-7′-((5-methyl-1,3-oxazol-2-yl)methyl)-3,4-dihydro-2H,15′H-spiro[naphthalene-1,22′-[20]oxa[13]thia[1,14]diazatetracyclo [14.7.2.0~3,6~.0~19,24~]pentacosa[8,16,18,24]tetraen]-15′-one 13′,13′-dioxide], the pIC50 was 9.54 in assay [1] (setting [3]) and 6.61 in assay [2] (setting [4]).

In the case of `CO[C@@]1(C[C@@H](O)C(C)C)/C=C/C[C@H](C)[C@@H](C)S(=O)(=O)NC(=O)c2ccc3c(c2)N(C[C@@H]2CC[C@H]21)C[C@@]1(CCCc2cc(Cl)ccc21)CO3` (racemic) [Example 100326, (1S,3′R,6′R,7′S,8′E,11′S,12′R)-6-chloro-7′-((2R)-2-hydroxy-3-methylbutyl)-7′-methoxy-11′,12′-dimethyl-3,4-dihydro-2H,15′H-spiro[naphthalene-1,22′-[20]oxa[13]thia[1,14]diazatetracyclo [14.7.2.0~3,6~.0~19,24~]pentacosa[8,16,18,24]tetraen]-15′-one 13′,13′-dioxide], the pIC50 in assay [1] (setting [3]) is 9.21; in assay [2] (setting [4]), 6.48.

Take `CO[C@@]1(CS(C)(=O)=O)/C=C/C[C@H](C)[C@@H](C)S(=O)(=O)NC(=O)c2ccc3c(c2)N(C[C@@H]2CC[C@H]21)C[C@@]1(CCCc2cc(Cl)ccc21)CO3` [Example 100459, (1S,3′R,6′R,7′S,8′E,11′S,12′R)-6-chloro-7′-methoxy-11′,12′-dimethyl-7′-((methylsulfonyl)methyl)-3,4-dihydro-2H,15′H-spiro[naphthalene-1,22′-[20]oxa[13]thia[1,14]diazatetracyclo [14.7.2.0~3,6~.0~19,24~]pentacosa[8,16,18,24]tetraen]-15′-one 13′,13′-dioxide]: the pIC50 in assay [1] (setting [3]) was 9.16; in assay [2] (setting [4]) it was 6.14.

On to `C[C@@H]1[C@@H](C)CCC[C@](O)(CC(=O)N2CCOCC2)[C@@H]2CC[C@H]2CN2C[C@@]3(CCCc4cc(Cl)ccc43)COc3ccc(cc32)C(=O)NS1(=O)=O` (single isomer, unassigned) [Example 100087], for which the results for the pIC50 in assay [1] (setting [3]) and in assay [2] (setting [4]) were 9.06 and 6.73, respectively.

In the case of `CO[C@@]1(c2cccnc2)/C=C/C[C@H](C)[C@@H](C)S(=O)(=O)NC(=O)c2ccc3c(c2)N(C[C@@H]2CC[C@H]21)C[C@@]1(CCCc2cc(Cl)ccc21)CO3` [Example 100391, (1S,3′R,6′R,7′S,8′E,11′S,12′R)-6-chloro-7′-methoxy-11′,12′-dimethyl-7′-(3-pyridinyl)-3,4-dihydro-2H,15′H-spiro[naphthalene-1,22′-[20]oxa[13]thia[1,14]diazatetracyclo [14.7.2.0~3,6~.0~19,24~]pentacosa[8,16,18,24]tetraen]-15′-one 13′,13′-dioxide], the values for the pIC50 in assay [1] (setting [3]) and in assay [2] (setting [4]) were 9.36 and 6.55, respectively.

Regarding `C[C@@H]1[C@@H](C)C/C=C/[C@@](O)(c2cnccc2F)[C@@H]2CC[C@H]2CN2C[C@@]3(CCCc4cc(Cl)ccc43)COc3ccc(cc32)C(=O)NS1(=O)=O` (single isomer, unassigned) [Example 100536], the values for the pIC50 in assay [1] (setting [3]) and in assay [2] (setting [4]) were 9.69 and 6.08, respectively.

In the case of `C[C@@H]1[C@@H](C)CCC[C@](O)(CC(=O)N(C)C(C)(C)C)[C@@H]2CC[C@H]2CN2C[C@@]3(CCCc4cc(Cl)ccc43)COc3ccc(cc32)C(=O)NS1(=O)=O` (single isomer, unassigned) [Example 100143], the figures for the pIC50 in assay [1] (setting [3]) and in assay [2] (setting [6]) were 8.73 and 5.49, respectively.

Turning to `C[C@@H]1[C@@H](C)C/C=C/[C@@](O)(C#CCN2CCS(=O)(=O)CC2)[C@@H]2CC[C@H]2CN2C[C@@]3(CCCc4cc(Cl)ccc43)COc3ccc(cc32)C(=O)NS1(=O)=O` [Example 100389, (1S,3′R,6′R,7′S,8′E,11′S,12′R)-6-chloro-7′-(3-(1,1-dioxido-4-thiomorpholinyl)-1-propyn-1-yl)-7′-hydroxy-11′,12′-dimethyl-3,4-dihydro-2H,15′H-spiro[naphthalene-1,22′-[20]oxa[13]thia[1,14]diazatetracyclo [14.7.2.0~3,6~.0~19,24~]pentacosa[8,16,18,24]tetraen]-15′-one 13′,13′-dioxide], the pIC50 in assay [1] (setting [3]) is 10.00; in assay [2] (setting [6]), 6.94.

`CCN1CCN(C[C@]2(OC)/C=C/C[C@H](C)[C@@H](C)S(=O)(=O)NC(=O)c3ccc4c(c3)N(C[C@@H]3CC[C@H]32)C[C@@]2(CCCc3cc(Cl)ccc32)CO4)CC1` [Example 247, (1S,3′R,6′R,7′S,8′E,11′S,12′R)-6-chloro-7′-((4-ethyl-1-piperazinyl)methyl)-7′-methoxy-11′,12′-dimethyl-3,4-dihydro-2H,15′H-spiro[naphthalene-1,22′-[20]oxa[13]thia[1,14]diazatetracyclo [14.7.2.0~3,6~.0~19,24~]pentacosa[8,16,18,24]tetraen]-15′-one 13′,13′-dioxide]: the negative logarithm of the IC50 (pIC50) is 9.89 in assay [1] (setting [5]) and 6.97 in assay [2] (Homo sapiens, OPM-2, 16 h, read-out: OPM-2 10% FBS IC50 IP, OPM-2 cells, 10% FBS, 16 h incubation).
